Measurements taken from patent US20210060033A1, “ORALLY ADMINISTERED COMBINATIONS OF BETA-LACTAM ANTIBIOTICS AND AVIBACTAM DERIVATIVES FOR TREATING BACTERIAL INFECTIONS” (priority 2019, published 2021).
Structures can show the parent of a compound that is named as a salt.

Legend:
[1] = system: pooled Enterobacteriaceae isolates; assay: Pharmacokinetic-pharmacodynamic analyses (Hill-type models) of the 400 mg ceftibuten dose-ranging studies; assay type: cell-based; settings: 400 mg of ceftibuten, 24 hours
Description: Data from the avibactam dose-ranging studies, in combination with 400 mg q8h of ceftibuten, were evaluated using Hill models and non-linear least squares regression. All data was weighted using the inverse of the estimated measurement variance. […] The relationships between change in log10 CFU/mL and percent time above avibactam concentration thresholds (Ct) ranging from 0.125 mg/L to 2 mg/L were also evaluated.

[2] = system: E. coli ATCC 25922; assay: One-compartment in vitro infection (chemostat) model, E. coli ATCC 25922; assay type: cell-based, Escherichia coli
[3] = system: K. pneumoniae 19701; assay: One-compartment in vitro infection (chemostat) model, K. pneumoniae 19701; assay type: cell-based, Klebsiella pneumoniae; settings: for Average Log10 CFU/mL (+/− Range of Data), 5 × Ceftibuten + Avibactam at 4 mg/L MIC: Ceftibuten 400 mg q8h
[4] = system: ESBL-, KPC-, and OXA-positive isolates; assay type: cell-based, Enterobacteriaceae; settings: avibactam 4 μg/mL
[5] = system: OXA-positive isolates (n = 22); assay type: cell-based, Enterobacteriaceae; settings: OXA n = 22; avibactam or clavulanic acid fixed at 4 μg/mL in combinations
[6] = system: 314 Enterobacteriaceae; assay type: cell-based; settings: all isolates combined; avibactam at a fixed concentration of 4 μg/mL
[7] = system: E. cloacae 4184; assay: One-compartment in vitro infection (chemostat) model, E. cloacae 4184; assay type: cell-based, Enterobacter cloacae; settings: for Average Log10 CFU/mL (+/− Range of Data), 5 × Ceftibuten + Avibactam at 4 mg/L MIC: Ceftibuten 400 mg q8h
[8] = system: KPC-positive isolates (n = 23); assay type: cell-based, Enterobacteriaceae; settings: KPC n = 23; avibactam or clavulanic acid fixed at 4 μg/mL in combinations
[9] = system: ESBL-positive isolates (n = 28); assay type: cell-based, Enterobacteriaceae; settings: ESBL n = 28; avibactam or clavulanic acid fixed at 4 μg/mL in combinations
[10] = system: pAmpC (PlasAmpC) isolates (n = 20); assay type: cell-based, Enterobacteriaceae; settings: pAmpC n = 20; avibactam or clavulanic acid fixed at 4 μg/mL in combinations
[11] = MIC determined using 4 mg/L of avibactam
[12] = MIC determined using 8 mg/L of avibactam
[13] = MIC determined using a 1:1 ratio of ceftibuten:avibactam
[14] = ceftibuten 200 mg q8h monotherapy
[15] = ceftibuten 400 mg q8h monotherapy

With NC(=O)[C@@H]1CC[C@@H]2CN1C(=O)N2OS(=O)(=O)O [avibactam, [2S,5R]-2-carbamoyl-7-oxo-1,6-diazabicyclo[3.2.1]octan-6-yl hydrogen sulfate] the “Avibactam free-drug plasma % T > Concentration threshold value, target 1-log” value ([1]; Ct 0.5 mg/L of avibactam) was 97.6%, the “Avibactam free-drug plasma % T > Concentration threshold value, target 2-log” value ([1]; Ct 0.5 mg/L of avibactam) was 98.2% and the “Avibactam free-drug plasma % T > Concentration threshold value, target Stasis” value ([1]; Ct 0.5 mg/L of avibactam) was 96.9%. The “Avibactam free-drug plasma % T > Concentration threshold value, target 1-log” value ([1]; Ct 1 mg/L of avibactam) was 85.2%, the “Avibactam free-drug plasma % T > Concentration threshold value, target 2-log” value ([1]; Ct 1 mg/L of avibactam) was 93.6% and the “Avibactam free-drug plasma % T > Concentration threshold value, target Stasis” value ([1]; Ct 1 mg/L of avibactam) was 76.0%. For the same compound, the “Avibactam free-drug plasma % T > MIC value, target 1-log” value [1, 11] was 58.0%, the “Avibactam free-drug plasma % T > MIC value, target 2-log” value [1, 11] was 66.3% and the “Avibactam free-drug plasma % T > MIC value, target Stasis” value [1, 11] was 53.2%. The “Avibactam free-drug plasma AUC:MIC value, target 1-log” value [1, 11] was 30.8, the “Avibactam free-drug plasma AUC:MIC value, target 2-log” value [1, 11] was 34.2 and the “Avibactam free-drug plasma AUC:MIC value, target Stasis” value [1, 11] was 28.7. The “Avibactam free-drug plasma % T > MIC value, target 1-log” value [1, 12] was 79.4%, the “Avibactam free-drug plasma % T > MIC value, target 2-log” value [1, 12] was 80.4% and the “Avibactam free-drug plasma % T > MIC value, target Stasis” value [1, 12] was 78.7%. The “Avibactam free-drug plasma AUC:MIC value, target 1-log” value [1, 12] was 67.0, the “Avibactam free-drug plasma AUC:MIC value, target 2-log” value [1, 12] was 128 and the “Avibactam free-drug plasma AUC:MIC value, target Stasis” value [1, 12] was 38.0. For the same compound, the “Avibactam free-drug plasma % T > MIC value, target 1-log” value [1, 13] was 11.1%, the “Avibactam free-drug plasma % T > MIC value, target 2-log” value [1, 13] was 22.7% and the “Avibactam free-drug plasma % T > MIC value, target Stasis” value [1, 13] was 6.8%. For the same compound, the “Avibactam free-drug plasma AUC:MIC value, target 1-log” value [1, 13] was 15.4, the “Avibactam free-drug plasma AUC:MIC value, target 2-log” value [1, 13] was 17.1 and the “Avibactam free-drug plasma AUC:MIC value, target Stasis” value [1, 13] was 14.4.

Nc1nc(/C(=C/CC(=O)O)C(=O)N[C@@H]2C(=O)N3C(C(=O)O)=CCS[C@H]23)cs1 [ceftibuten, (6R,7R)-7-((Z)-2-(2-amino-4-thiazolyl)-4-carboxycrotonamido)-8-oxo-5-thia-1-azabicyclo(4.2.0)oct-2-ene-2-carboxylic acid] was tested, and the “Reduction (bacterial burden)” value ([2]; Ceftibuten 267 mg TID, Avibactam 0 mg TID) was 1-log, the “ceftibuten % T>MIC required to achieve net bacterial stasis” value ([2]; administered every 8 hours) was “approximately 45%” and the “bacterial burden response at 24 hours” value ([2]; ceftibuten 3.75 mg to 75 mg q8h) was “net bacterial stasis”. For the same compound, the “bacterial burden response at 24 hours” value ([2]; ceftibuten 12.5 mg q8h) was “treatment failure”, the “bacterial burden response at 24 hours” value ([2]; ceftibuten 100 mg and 267 mg q8h) was “reductions in bacterial burden” and the “Average Log10 CFU/mL (+/− Range of Data), 5 × Ceftibuten + Avibactam at 4 mg/L MIC” value (“Average Log10 CFU/mL (+/− Range of Data)” below) ([3]; 0 h) was 0 (0) Log10 CFU/mL. For the same compound, the “Average Log10 CFU/mL (+/− Range of Data)” value ([3]; 24 h) was 1.67 (1.17) Log10 CFU/mL, the “bacterial burden response over 24 hours” value [3, 14] was “no activity” and the “bacterial burden response over 24 hours” value [3, 15] was “did not reduce the bacterial burden”. For the same compound, the “reduction of MIC90 values by addition of avibactam” value [4] was “at least five doubling dilutions”, the “Estimated MIC90” value [5] was greater than 32 µg/mL and the “MIC90 with addition of avibactam” value [6] was 0.5 µg/mL. For the same compound, the “Average Log10 CFU/mL (+/− Range of Data)” value ([7]; 0 h) was 0.99 (0.31) Log10 CFU/mL, the “Average Log10 CFU/mL (+/− Range of Data)” value ([7]; 24 h) was 1.68 (0.20) Log10 CFU/mL and the “bacterial burden response over 24 hours” value [7, 14] was “no activity”. For the same compound, the “bacterial burden response over 24 hours” value [7, 15] was “did not reduce the bacterial burden”, the “Estimated MIC90” value [8] was greater than 32 µg/mL and the “Estimated MIC90” value [9] was greater than 32 µg/mL. For the same compound, the “Estimated MIC90” value [10] was greater than 32 µg/mL.
